What all share (test): growth of human tumour cells (NCI), 48 h
In assay [1] the test system is 786-0 renal.
Assay [2] has as its system UO-31 renal.
The subject of assay [3] is HS 578T breast.
For assay [4], the system named is CAKI-1 renal.
Assay [5] has as its system EKVX NSCLC.
The subject of assay [6] is M14 melanoma.
Assay [7] has as its system OVCAR-5 ovarian.
Assay [8] relates to MALME-3M melanoma.
Assay [9] deals with RXF 393 renal.
Assay [10] deals with MDA-N.
Assay [11] relates to SN12C renal.
The subject of assay [12] is SNB-19 CNS.

Where “and” joins values, the source holds several entries; their conditions need not be identical. Identical values can stand only once.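 Results reflect a 48-hour exposure of cells in 96-well plates to compound at five concentrations. At the TGI there is no net growth.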 Where a SMILES comes first, the peptide text is derived from it. The star is where a group is joined. Cbz = O=C(OCc1ccccc1)*

For the compound `O=C(NC(Nc1ccc(F)c(Cl)c1)(C(F)(F)F)C(F)(F)F)C(C(F)(F)F)C(F)(F)F`, the TGI in assay [1] is over 100 µM; in [2], 59.1 µM; in [3], 64.7 µM; in assay [4], over 100 µM; in assay [5], over 100 µM; in [6] it was over 100 µM. Moreover, the TGI is 78.1 µM in [7]; 62 µM in assay [8]; 63.4 µM in assay [9]; over 100 µM in [10]; over 100 µM in [11]; over 100 µM in assay [12].

`CCOC(=O)C(C)NC(=O)C(C)NC(=O)C(C)NC(=O)C(C)NC(=O)C(C)NC(=O)C(C)NC(=O)C(C)NC(=O)OCc1ccccc1` (configuration not stated) (Cbz-AAAAAAA-OEt; configuration not given here): the TGI in assay [1], in [2], in assay [3], in assay [4], in assay [5] and in [6] was over 100 µM each time. Also, the TGI in [7], in [8], in assay [9], in assay [10], in assay [11] and in assay [12] was over 100 µM each time.

Turning to `C[N+]1(C)CN(c2ccccc2)C2(CCN(CCCC(=O)c3cccs3)CC2)C1=O`, the TGI in assay [1] was over 100 µM; in assay [2] it was over 100 µM; in [3], over 100 µM; in assay [4], over 100 µM; in [5], over 100 µM; in assay [6], 51.9 µM. Besides, the TGI in assay [7], in assay [8], in assay [9], in assay [10], in [11] and in assay [12] was over 100 µM in each case.

With `CSc1c(C#N)c2n(c3ccccc3[n+]2C)c2ncccc12`, the TGI was 50.3 µM in assay [1]; 50.1 µM in assay [2]; over 100 µM in assay [3]; over 100 µM in assay [4]; 50.5 µM in assay [5]; 52.6 µM in [6]. Moreover, the TGI is 84.6 µM in assay [7]; 40.3 µM in assay [8]; 37.2 µM in [9]; 58.6 µM in assay [10]; 67.5 µM in [11]; over 100 µM in assay [12].

In the case of `CC/C(Cl)=N\OC(=O)Nc1ccc(C#N)cc1`, the TGI was 23.5 µM in assay [1]; 31 µM in assay [2]; 57.8 µM in assay [3]; 9.32 µM in [4]; 26.3 µM in assay [5]; 24.8 µM in assay [6]. Also, the TGI is 29.5 µM in [7]; 8.25 µM in assay [8]; 21.4 µM in assay [9]; 30 µM in assay [10]; 30.3 µM in assay [11]; over 100 µM in assay [12].

Take `C=C(Cl)C(Cl)(CBr)CCC(Cl)C(C)(C)Cl` (configuration not stated): the TGI amounted to 1.32 µM in [1]; 5.15 µM in assay [2]; 0.284 µM in [3]; 2.48 µM in assay [4]; 20.9 µM in assay [5]; 35.6 µM in assay [6]. The TGI came to 7.41 µM in [7]; 22.8 µM in assay [8]; 10.9 µM in assay [9]; 7.55 µM in assay [10]; 22.5 µM in assay [11]; 7 µM in assay [12].

For `CCOC(=O)c1nc2cc(C(F)(F)F)ccc2nc1Nc1ccc(Cl)c(Cl)c1`, the TGI in [1], in assay [2], in [3], in assay [4], in assay [5] and in assay [6] was over 100 µM in each case. Further, the TGI in assay [7], in assay [8], in [9], in assay [10], in assay [11] and in [12] was over 100 µM each time.

For `Cc1ccc(/C=N/Nc2ncccn2)s1`, the TGI in assay [1], in assay [2], in assay [3], in assay [4], in assay [5] and in assay [6] was over 100 µM in each case. For the same compound, the TGI in assay [7], in assay [8], in assay [9], in [10], in assay [11] and in [12] was over 100 µM each time.

For `Cc1ccc(C2=Nc3c(N)nc(N)nc3NC(c3ccccc3)C2)cc1` (configuration not stated), the TGI in assay [1] was 24.3 µM and 31.1 µM; in assay [2], 25.2 µM and 25.6 µM; in [3], 33.9 µM and 41.1 µM; in [4] it was 24.7 µM and 29.5 µM; in assay [5] it was 27.2 µM and 28.2 µM; in [6], 20.8 µM and 21.8 µM. For the same compound, the TGI in [7] was 30.5 µM and 33.5 µM; in assay [8] it was 23.6 µM and 24.5 µM; in assay [9] it was 25.2 µM and 21.3 µM; in [10], 5.64 µM and 5.72 µM; in assay [11] it was 23.7 µM and 32 µM; in [12], 27 µM and 32.9 µM.

For the compound `Cc1n[nH]c(=O)n1N=C(c1ccccc1)c1ccccc1`, the TGI in [1], in assay [2], in [3], in [4], in assay [5] and in assay [6] was over 100 µM each time. The TGI in [7], in assay [8], in [9], in [10], in assay [11] and in [12] was over 100 µM throughout.

Take `O=C1OC(CN2CCN(c3ccccc3)CC2)CN1C(=S)Nc1ccccc1` (configuration not stated): the TGI in [1], in [2], in [3], in [4], in [5] and in [6] was over 100 µM in each case. The TGI in [7], in [8], in assay [9], in [10], in assay [11] and in assay [12] was over 100 µM in each case.

As to `CC(C)(C)OC(=O)NC(Cc1ccc([N+](=O)[O-])cc1)C(=O)NC(CCCCNC(=O)OCc1ccccc1)C(=O)ON1C(=O)CCC1=O` (configuration not stated), the TGI in assay [1], in [2], in assay [3], in assay [4], in assay [5] and in [6] was over 100 µM in each case. In addition, the TGI in assay [7], in [8], in assay [9], in [10], in assay [11] and in assay [12] was over 100 µM each time.

As to `CC(C)(C)/C(O)=C\c1nc2cc(C(F)(F)F)ccc2[nH]c1=O`, the TGI in assay [1], in assay [2], in assay [3], in assay [4], in assay [5] and in assay [6] was over 100 µM throughout. For the same compound, the TGI in [7], in assay [8], in assay [9], in [10], in [11] and in assay [12] was over 100 µM throughout.

As to `COC(=O)C1=C(O)C(C(=O)OC)[C@]2(O)[C@H](C(=O)OC)[C@H]1C[C@@H](c1ccc(OC)cc1)[C@H]2C(=O)OC` (some centres not stated), the TGI is 47.3 µM in [1]; 34.9 µM in assay [2]; over 100 µM in [3]; 62.1 µM in assay [4]; over 100 µM in [5]; 66.6 µM in assay [6]. For the same compound, the TGI in assay [7] is 51.9 µM; in assay [8], over 100 µM; in assay [9], 42 µM; in assay [10] it was 40.7 µM; in [11], 53.9 µM; in [12] it was 79.8 µM.

On to `O=C(C1OC1c1ccc([N+](=O)[O-])cc1)C12CC3CC(CC(C3)C1)C2` (configuration not stated), for which the TGI in assay [1] was found to be 22.1 µM; in assay [2], 32.4 µM; in [3], 50.3 µM; in assay [4], 36 µM; in [5] it was 37.4 µM; in assay [6] it was 30.1 µM. Moreover, the TGI in assay [7] stood at 39.9 µM; in assay [8], 32.4 µM; in assay [9], 46.4 µM; in assay [10], 24.3 µM; in assay [11], 29.7 µM; in assay [12], 32 µM.

With `NC(CCCCNc1ccn(C2OC(CO)C(O)C2O)c(=O)n1)C(=O)O` (configuration not stated), the TGI in assay [1], in assay [2], in assay [3], in assay [4], in assay [5] and in assay [6] was over 100 µM in each case. Also, the TGI in assay [7], in assay [8], in assay [9], in assay [10], in [11] and in [12] was over 100 µM in each case.

(Values after PubChem BioAssay (NCI).)
